Data on 72 compounds can be found in PubChem BioAssay AID179 (DTP/NCI, 2004).

The assay concerns CEM cells HIV-1 protection, formazan growth assay. In words: NCI AIDS Antiviral Assay. Particulars: for IC50: measured here: growth of uninfected CEM cells. In short, it runs like this: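 Protection of CEM cells against HIV-1 measured as cell growth via soluble formazan read-out, with five concentrations tested on both infected and uninfected cells; failure to protect may reflect toxicity.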

The structures appear in SMILES notation. Calls of active or inactive are those of the source.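 How the source made its calls: active means compounds giving half or more protection of infected cells from virus-caused growth loss, again on retest; inactive means the rest.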 A value given as a limit tells only on which side of the number the result lay.

One may read the EC50 as the concentration that produces a half-maximal response. Usually IC50 stands for the concentration at which inhibition is half-maximal. Take `Oc1ccc(O)c(-n2cccn2)c1`: the EC50 is more than 14.1 µM and the IC50 stood at 7.24 µM.
For `S=c1sc2ccccc2n1CN1CCCC1` the same measures were more than 200 µM and 102 µM.
In the case of `CNCS(=O)(=O)O`, the EC50 is more than 200 µM and the IC50 turned out to be 97.7 µM.
For `COCO[C@@H]1C(=O)N(c2ccccc2)[C@@H]1c1ccccc1` the same measures were more than 178 µM and more than 178 µM.
`Nc1ncnc2c1ncn2C1CCCCC(O)C1` (configuration not stated): the outcome was inactive.
Turning to `CC(C)(C)OC(=O)N(CCCCNCc1ccc2ccccc2c1)CCCNCc1ccc2ccccc2c1`, the EC50 was more than 2 µM and the IC50 stood at 1.05 µM.
For `O=C(/C=C/c1ccccc1)CC1OC(=O)c2ccccc21` (configuration not stated) the same measures were more than 245 µM and 129 µM.
Turning to `COc1ccccc1NC(=S)N/N=C/c1cccc(C)n1`, the EC50 was more than 200 µM and the IC50 was 2.75 µM.
For `CC(=O)OC(OC(C)=O)c1ncccc1C(=O)OC(C)C` the same measures were more than 851 µM and 112 µM.
For `CCN(CC)CCCNC(=O)Cc1ccccc1Nc1c(Cl)cccc1Cl` the same measures were more than 200 µM and 16.6 µM.
Turning to `O=C1c2c(O)cccc2Cc2cccc(O)c21`, the result was inactive.
For the compound `CC(=S)N/C=C(\C#N)S(=O)(=O)c1ccc(C)cc1`, the EC50 was more than 200 µM and the 50% inhibitory concentration (IC50) was more than 200 µM.
On to `CSc1nc2[nH]c(=O)n(O)c(=O)c2n1Cc1ccccc1`, for which the EC50 is more than 200 µM and the IC50 is 3.8 µM.
For `CN1C/C(=C\c2cccs2)C2=NC(=S)NC(c3cccs3)C2C1` (configuration not stated) the same measures were more than 200 µM and 36.3 µM.
For `COC(=O)N[C@@H]1C[C@H]2CC[C@]1(O[Si](C(C)C)(C(C)C)C(C)C)C(=O)C2` the same measures were more than 200 µM and 16.6 µM.
For `COC(=O)c1ccc(NCC2=CC(=O)C=CC2=O)cc1O` the same measures were more than 200 µM and 4.47 µM.
Take `[N-]=[N+]=Nc1ccc(CCN2CCN(c3cccc(C(F)(F)F)c3)CC2)cc1I`: the outcome was inactive.
For the compound `NC(=O)C(=CN1C(=O)/C(=C\c2cccc(O)c2)SC1=S)C(N)=O`, the EC50 was more than 200 µM and the IC50 is 107 µM.
For `CC[C@H](CCCC[C@H]1CC[C@@H]2CC(=O)C[C@H]12)OC` the same measures were more than 200 µM and 117 µM.
With `O=C(C[n+]1ccccc1)N=N/C(C(=O)Nc1c(Cl)c(O)c2ccccc2c1O)=C1/C(=O)Oc2cc(O)ccc2C1=O`, the EC50 is more than 22.4 µM and the IC50 was 12 µM.
As for `O=C1CN(S(=O)(=O)c2ccc([N+](=O)[O-])cc2)CC(=O)CN(S(=O)(=O)c2ccc([N+](=O)[O-])cc2)CC(=O)CN(S(=O)(=O)c2ccc([N+](=O)[O-])cc2)C1`, the EC50 is more than 200 µM and the 50% inhibitory concentration (IC50) was more than 200 µM.
Turning to `COC(=O)c1ccc2cc(O)ccc2c1`, the EC50 was more than 200 µM and the 50% inhibitory concentration (IC50) came to 83.2 µM.
For `O=C(OCc1ccccc1)[C@H]1O[C@@H]1C(=O)OCc1ccccc1` the same measures were more than 200 µM and 25.7 µM.
Regarding `O=S(=O)(NCCSSCCNS(=O)(=O)c1ccc(F)cc1)c1ccc(F)cc1`, the EC50 is more than 200 µM and the IC50 turned out to be 8.91 µM.
For `O=c1[nH]c(=O)ss1` the same measures were more than 105 µM and more than 100 µM.
For `NNc1c(Cl)c(=O)n(-c2ccccc2)[nH]c1=O` the same measures were more than 200 µM and more than 200 µM.
For `COC(=O)C(Cc1nc2ccccc2nc1C)/C(=N\NC(N)=O)C(=O)Nc1cccc([N+](=O)[O-])c1` (configuration not stated) the same measures were more than 15.1 µM and more than 15.1 µM.
`CC(=O)OC1CSS(=O)CC1OC(C)=O` (configuration not stated): the EC50 is more than 513 µM and the IC50 was found to be 22.9 µM.
As to `CC(C)(C)OC(=O)NCCNC(=O)CN(CC(=O)O)C1CCCCC1N(CC(=O)O)CC(=O)O` (configuration not stated), the EC50 was more than 200 µM and the IC50 amounted to 170 µM.
Turning to `Cc1[nH]n(-c2ccccc2)c(=O)c1/C=N\C(N)=S`, the EC50 was more than 200 µM and the IC50 amounted to 182 µM.
For `COc1ccc(CN2COc3c(cc(C)c4cccnc34)C2)cc1` the same measures were more than 200 µM and 1.02 µM.
For `CC(C)OC(=O)[C@@H]1OC(C)(C)O[C@H]1C(=O)OC(C)C` the same measures were more than 200 µM and more than 200 µM.
For the compound `N#Cc1sc2c(c1OC(=O)c1ccco1)c(=O)n(-c1ccccc1)c(=S)n2-c1ccccc1`, the EC50 is more than 200 µM and the IC50 was 12.3 µM.
For `Cc1ccc([N+](=O)[O-])cc1NC(=O)Nc1onc(C)c1C` the same measures were more than 200 µM and 9.77 µM.
For `c1ccc2sc(N3CCCCC3)nc2c1` the same measures were more than 200 µM and 81.3 µM.
For `O=c1[nH]nc2ccccc2c1Cc1ccccc1` the same measures were more than 151 µM and more than 151 µM.
Consider `CCOC(=O)c1c(NCc2ccccc2)n(-c2ccccc2)c(=S)n(-c2ccccc2)c1=O`, for which the EC50 was more than 40.7 µM and the IC50 is 30.2 µM.
For `CN[C@@H]1C[C@H]2O[C@@](C)([C@@H]1OC)n1c3ccccc3c3c4c(c5c6ccccc6n2c5c31)C(=O)N[C@@H]4O` the same measures were more than 38.9 µM and 0.0309 µM.
For `CC1(C)C2C=CC1C(=O)CC2` (configuration not stated) the same measures were more than 389 µM and more than 389 µM.
For `CC(=O)C(CCC#N)(CCC#N)CCC#N` the same measures were more than 200 µM and more than 200 µM.
As to `O=c1[nH][nH]c(=O)c2c1[nH]c(=S)n2Cc1ccccc1`, the EC50 was more than 912 µM and the IC50 was more than 912 µM.
`C=CCOCCCC(=O)C(=[N+]=[N-])C(=O)OC`: the EC50 is more than 251 µM and the IC50 stood at 57.5 µM.
In the case of `O=C1[C@H]2ON(c3ccccc3)C(c3cccc([N+](=O)[O-])c3)[C@H]2C(=O)N1c1ccc(Cc2ccc(N3C(=O)[C@@H]4ON(c5ccccc5)C(c5cccc([N+](=O)[O-])c5)[C@@H]4C3=O)cc2)cc1` (some centres not stated), the EC50 is more than 6.17 µM and the IC50 was more than 6.17 µM.
`COS(=O)CCOC(=O)c1ccccc1SSc1ccccc1C(=O)OCCS(=O)OC` (configuration not stated): the EC50 was 112 µM and the IC50 is more than 200 µM.
On to `COC(=O)C1=C(C)NC2=C(C(=O)c3ccccc32)C1c1cn(-c2ccccc2)nc1-c1ccccc1` (configuration not stated), for which the EC50 is more than 200 µM and the IC50 is 8.71 µM.
For `CC(=O)O[C@@H]1O[Si](C(C)(C)C)(C(C)(C)C)[C@H](C)[C@H]1C` the same measures were more than 100 µM and more than 100 µM.
For `CC(C)C1NC(=O)c2ccccc2S1` (configuration not stated) the same measures were more than 871 µM and 195 µM.
For `COc1ccccc1NC(=O)/C(=C/n1c(=S)[nH]c2ccccc21)C(C)=O` the same measures were more than 200 µM and more than 200 µM.
Turning to `Cc1c(C)n(-c2ccccc2)c2nc(S(C)=O)nc(S(C)=O)c12` (configuration not stated), the EC50 was more than 20 µM and the IC50 amounted to 1.35 µM.
For `CC(O)CC[P+](c1ccccc1)(c1ccccc1)c1ccccc1` (configuration not stated) the same measures were more than 200 µM and 4.27 µM.
For `O=C(O)CSCc1cc(C(=O)Nc2ccc(/C=C/c3ccc(NC(=O)c4cc(CSCC(=O)O)c5cccnc5c4O)cc3S(=O)(=O)O)c(S(=O)(=O)O)c2)c(O)c2ncccc12` the same measures were 0.832 µM and 22.4 µM.
For `O=Cc1cn(CCCCCCCCCCCCn2cc(C=O)c3ccccc32)c2ccccc12` the same measures were more than 200 µM and 1.2 µM.
For `CCN(CC)P1CCP(c2ccccc2)CC1` (configuration not stated), the EC50 is more than 37.2 µM and the IC50 was more than 37.2 µM.
With `COC(=O)C1=C(C(=O)OC)P2(C)(C)SC(=S)N2C1(c1ccccc1)c1ccccc1`, the EC50 was more than 200 µM and the IC50 is more than 200 µM.
For `Cn1c2ccccc2c(=Nc2ccc(S(N)(=O)=O)cc2)c2ccccc21`, the outcome was inactive.
Still for that read-out and setting: the value for `C[Si](C)(C)/C(I)=C/CO` was “inactive”.
For the compound `COC(=O)c1cc2cc(CS(=O)(=O)O)ccc2cc1O`, the EC50 is more than 200 µM and the IC50 came to 102 µM.
For `CCOC(=O)C(=CNC(=S)Nc1cc(C)ccc1C)C(=O)OCC` the same measures were more than 200 µM and more than 200 µM.
`COc1ccc2[nH]c3c(C)c4cc[n+](C)cc4c(C)c3c2c1`: the EC50 is more than 20 µM and the IC50 amounted to 0.417 µM.
As for `Nc1nc(N)c(CCCCc2ccc([N+](=O)[O-])cc2)c(N)n1`, the result was inactive.
Turning to `O=C(/C=C/c1ccc(O)c([N+](=O)[O-])c1)CC(=O)/C=C/c1ccc(O)c([N+](=O)[O-])c1`, the EC50 is more than 200 µM and the IC50 was 25.7 µM.
For `CC(=O)/C=C1/C(=O)C(CC(C)C)=C1CC(C)C` the same measures were 141 µM and more than 200 µM.
For `Cc1cccc(C)c1NC(=O)CCCC(=O)C(C#N)c1ccccc1` (configuration not stated) the same measures were more than 741 µM and more than 741 µM.
For `COc1ccccc1C1C(C(=O)Nc2ccccc2)=C(C)NC(C)=C1C(=O)Nc1ccccc1` the same measures were more than 21.9 µM and more than 21.9 µM.
With `COc1cc(/C=C/C(=O)CC(=O)/C=C/c2cc(OC)c(O)c(OC)c2)cc(OC)c1O`, the EC50 is more than 200 µM and the IC50 stood at 12.6 µM.
For `Cc1ccc(S(=O)(=O)NNC(=O)c2sc(-c3nc(C)c(C(=O)NNS(=O)(=O)c4ccc(C)cc4)s3)nc2C)cc1` the same measures were more than 81.3 µM and more than 81.3 µM.
For `O=C1CCC2(c3ccccc3)Nc3ccccc3N12` (configuration not stated) the same measures were more than 200 µM and 126 µM.
On to `COc1ccccc1/C=C1\Sc2scc(-c3cccc([N+](=O)[O-])c3)[n+]2C1=O`, for which the result was inactive.
In the case of `O=C(NNC(=S)S)c1ccncc1`, the EC50 was more than 200 µM and the IC50 was 95.5 µM.
For `C/C=C(\C)C(=O)OCC12C(OC(C)=O)CC(C)C(C)(CCC3=CC(=O)OC3)[C@H]1CCCC21CO1` (some centres not stated) the same measures were more than 75.9 µM and more than 75.9 µM.
Take `CCCCCCCCCCCCCC(=O)OCC1OC(n2cc(C)c(=O)[nH]c2=O)CC1N=[N+]=[N-]` (configuration not stated): the EC50 is 0.00372 µM and the IC50 was found to be 102 µM.
For `CC1=NC(C)(C)CC2CCC(O)C12` (configuration not stated) the same measures were more than 200 µM and more than 200 µM.
